Measurements taken from paper PMC6030506 (Biochemistry, 2018).

Key:
[1] = biological target: T1, HDAC6 (catalytic domain 2, CD2) (Danio rerio, UniProt F8W4B7); assay: ITC; type: binding; conditions: […] HEPES pH […] KCl, […] glycerol, […] TCEP
T1 sequence (F8W4B7 440-798): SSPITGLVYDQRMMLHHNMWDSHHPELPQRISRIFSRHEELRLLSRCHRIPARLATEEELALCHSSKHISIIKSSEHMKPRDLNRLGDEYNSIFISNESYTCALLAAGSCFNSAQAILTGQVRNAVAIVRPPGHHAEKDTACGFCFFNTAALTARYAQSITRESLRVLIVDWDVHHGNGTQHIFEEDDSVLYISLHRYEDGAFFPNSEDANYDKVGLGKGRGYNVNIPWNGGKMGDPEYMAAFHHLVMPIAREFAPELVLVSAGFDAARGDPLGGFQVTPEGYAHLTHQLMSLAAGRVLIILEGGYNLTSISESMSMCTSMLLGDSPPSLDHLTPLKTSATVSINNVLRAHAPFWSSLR

HDAC8 = biological target: T2, HDAC8 (Homo sapiens, UniProt Q9BY41); assay: ITC; type: binding; conditions: […] HEPES pH […] KCl, […] glycerol, […] TCEP
T2 sequence (Q9BY41 1-377): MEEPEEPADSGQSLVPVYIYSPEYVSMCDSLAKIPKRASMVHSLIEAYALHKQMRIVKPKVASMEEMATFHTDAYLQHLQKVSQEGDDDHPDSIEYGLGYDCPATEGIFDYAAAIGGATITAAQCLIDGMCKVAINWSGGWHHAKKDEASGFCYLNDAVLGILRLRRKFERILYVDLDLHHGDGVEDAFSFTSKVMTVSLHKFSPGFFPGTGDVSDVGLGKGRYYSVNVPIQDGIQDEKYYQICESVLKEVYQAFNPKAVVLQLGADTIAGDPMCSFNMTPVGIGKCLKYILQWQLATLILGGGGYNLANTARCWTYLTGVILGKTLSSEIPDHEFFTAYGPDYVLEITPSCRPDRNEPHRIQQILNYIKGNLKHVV

Compound: O=C(NO)c1ccc(CN(CCO)C(=O)Cc2ccccc2)cc1 [HPB]
- Kd [1]: we additionally studied the binding of the phenylhydroxamate derivative HPB
- Kd (HDAC8): we additionally studied the binding of the phenylhydroxamate derivative HPB

Compound: O=C(CCCCCCNC(=O)c1cnc(N(c2ccccc2)c2ccccc2)nc1)NO [Ricolinostat]
- Kd [1]: the aliphatic hydroxamate inhibitor Ricolinostat

Compound: O=C(CCCCCCC(=O)Nc1ccccc1)NO [SAHA]
- Kd [1]: the aliphatic hydroxamate inhibitor suberoylanilide hydroxamic acid (SAHA)
